Data on one compound can be found in paper PMC6934184, “Selective DNA-PKcs inhibition extends the therapeutic index of localized radiotherapy and chemotherapy” (The Journal of Clinical Investigation, 2019).

The target of this experiment is T1, CDK9/cyclin K (Homo sapiens, UniProt P50750).
T1 construct: purchased Thermo Fisher Scientific (Life Technologies) SelectScreen
Nature of the experiment: SelectScreen LanthaScreen. The settings on record: read-out: % displacement. The class given is binding. A digest of the protocol:
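NU5455 was profiled across the SelectScreen Broad panel of kinase activity and binding assays. Z'LYTE reactions such as CSF1R ran at apparent Km ATP, while the Adapta CAMK1 assay used ATP listed as 10. Values are given as percent.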
A general note: In TR-FRET formats the signal depends on donor and acceptor labels being close together.

T1 sequence (P50750 whole entry): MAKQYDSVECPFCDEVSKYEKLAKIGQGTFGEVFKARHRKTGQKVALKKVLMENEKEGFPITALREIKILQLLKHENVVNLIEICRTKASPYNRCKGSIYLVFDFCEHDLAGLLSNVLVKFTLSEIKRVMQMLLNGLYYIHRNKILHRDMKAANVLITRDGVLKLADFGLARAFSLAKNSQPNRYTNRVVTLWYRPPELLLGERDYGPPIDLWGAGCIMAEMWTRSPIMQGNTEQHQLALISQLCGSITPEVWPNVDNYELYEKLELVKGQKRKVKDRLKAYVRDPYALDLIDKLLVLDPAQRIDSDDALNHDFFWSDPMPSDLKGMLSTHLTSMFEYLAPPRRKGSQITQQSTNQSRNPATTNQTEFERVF
T1 sequence (O75909 whole entry partner): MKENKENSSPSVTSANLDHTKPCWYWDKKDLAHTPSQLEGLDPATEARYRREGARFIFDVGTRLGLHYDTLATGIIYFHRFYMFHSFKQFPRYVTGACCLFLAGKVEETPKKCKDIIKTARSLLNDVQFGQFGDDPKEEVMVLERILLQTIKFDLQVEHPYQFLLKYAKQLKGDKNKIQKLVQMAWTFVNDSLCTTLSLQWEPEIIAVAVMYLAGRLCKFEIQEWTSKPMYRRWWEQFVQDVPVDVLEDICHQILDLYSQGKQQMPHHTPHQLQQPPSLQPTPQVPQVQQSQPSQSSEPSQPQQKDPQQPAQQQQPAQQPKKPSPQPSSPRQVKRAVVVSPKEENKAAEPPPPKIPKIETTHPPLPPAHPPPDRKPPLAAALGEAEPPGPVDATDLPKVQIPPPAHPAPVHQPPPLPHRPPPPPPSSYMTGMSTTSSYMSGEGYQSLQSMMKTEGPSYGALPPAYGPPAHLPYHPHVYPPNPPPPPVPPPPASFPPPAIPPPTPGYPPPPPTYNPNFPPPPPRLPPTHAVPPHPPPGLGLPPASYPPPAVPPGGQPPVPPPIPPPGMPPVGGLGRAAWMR

Consider `CN(C(=O)CN1CCOCC1)c1ccc2sc3c(-c4cccc5c(=O)cc(N6CC7CCC(C6)O7)oc45)cccc3c2c1` [NU5455], for which the inhibition at 1 µM amounted to 1%.
